For 8 compounds, IC50 results are on record in ChEMBL document CHEMBL1126211, “Arylamides of hydroxylated isoquinolines as protein-tyrosine kinase inhibitors” (Bioorg Med Chem Lett, 1992).

Test [1] addresses Tyrosine-protein kinase Lck (Homo sapiens, UniProt P06239). Description: Inhibition of p56 lck tyrosine kinase.
The target in test [2] is Epidermal growth factor receptor (Homo sapiens, UniProt P00533). Description: Inhibition of epidermal growth factor receptor (EGFR).

The structures appear in SMILES notation.

Epidermal growth factor receptor, sequence (P00533 whole entry): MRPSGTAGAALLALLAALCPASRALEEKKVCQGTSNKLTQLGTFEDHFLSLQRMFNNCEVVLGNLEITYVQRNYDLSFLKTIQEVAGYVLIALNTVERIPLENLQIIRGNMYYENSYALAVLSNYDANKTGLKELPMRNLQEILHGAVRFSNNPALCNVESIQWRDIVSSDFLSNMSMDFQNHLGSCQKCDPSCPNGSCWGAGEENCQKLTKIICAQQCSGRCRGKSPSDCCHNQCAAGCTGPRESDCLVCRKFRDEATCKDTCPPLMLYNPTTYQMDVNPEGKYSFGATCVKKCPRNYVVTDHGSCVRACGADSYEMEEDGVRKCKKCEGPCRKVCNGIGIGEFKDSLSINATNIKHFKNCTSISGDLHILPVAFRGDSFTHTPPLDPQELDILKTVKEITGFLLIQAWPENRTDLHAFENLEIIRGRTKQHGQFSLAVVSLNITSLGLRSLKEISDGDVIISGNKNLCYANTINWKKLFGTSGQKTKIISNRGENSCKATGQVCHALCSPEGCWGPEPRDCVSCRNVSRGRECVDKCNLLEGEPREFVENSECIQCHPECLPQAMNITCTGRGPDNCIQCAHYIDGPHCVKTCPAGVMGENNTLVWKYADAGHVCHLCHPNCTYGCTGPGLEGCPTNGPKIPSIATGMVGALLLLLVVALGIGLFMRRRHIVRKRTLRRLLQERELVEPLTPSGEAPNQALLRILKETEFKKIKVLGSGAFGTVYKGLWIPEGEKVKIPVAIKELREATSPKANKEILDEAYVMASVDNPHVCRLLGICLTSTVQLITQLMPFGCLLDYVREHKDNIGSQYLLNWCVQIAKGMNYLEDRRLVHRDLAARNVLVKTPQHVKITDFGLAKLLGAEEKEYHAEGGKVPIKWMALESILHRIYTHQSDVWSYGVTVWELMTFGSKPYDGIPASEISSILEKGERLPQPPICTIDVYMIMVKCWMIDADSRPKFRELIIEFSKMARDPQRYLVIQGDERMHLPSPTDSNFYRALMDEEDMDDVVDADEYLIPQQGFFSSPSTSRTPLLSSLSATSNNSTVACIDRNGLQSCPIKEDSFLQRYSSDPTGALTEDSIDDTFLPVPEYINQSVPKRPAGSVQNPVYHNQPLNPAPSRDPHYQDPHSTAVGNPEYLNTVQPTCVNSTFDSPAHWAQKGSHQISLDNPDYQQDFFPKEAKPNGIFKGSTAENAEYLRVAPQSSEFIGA
Tyrosine-protein kinase Lck, sequence (P06239 whole entry): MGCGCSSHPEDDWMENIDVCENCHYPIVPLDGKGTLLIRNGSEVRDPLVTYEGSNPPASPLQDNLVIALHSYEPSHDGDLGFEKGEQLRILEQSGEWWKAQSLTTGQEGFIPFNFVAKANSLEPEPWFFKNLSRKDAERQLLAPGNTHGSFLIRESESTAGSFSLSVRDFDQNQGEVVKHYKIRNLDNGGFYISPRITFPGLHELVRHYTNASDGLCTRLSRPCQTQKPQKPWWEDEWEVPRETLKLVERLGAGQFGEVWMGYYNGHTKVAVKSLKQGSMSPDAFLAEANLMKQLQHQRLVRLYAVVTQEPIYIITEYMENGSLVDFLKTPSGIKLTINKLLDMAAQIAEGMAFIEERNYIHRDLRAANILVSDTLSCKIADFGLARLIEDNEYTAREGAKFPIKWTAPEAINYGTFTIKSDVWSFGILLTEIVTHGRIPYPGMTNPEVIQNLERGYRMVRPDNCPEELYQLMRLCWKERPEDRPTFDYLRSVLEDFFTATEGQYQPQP

Broadly, the IC50 is the concentration that inhibits the measured activity by half. Read a high IC50 as a need for much substance. Regarding `NC(=O)c1cc2cc(O)c(O)cc2cn1`, the results for the IC50 in test [1] and in test [2] were 1900 µM and over 100 µM, respectively.
In test [2], `N#C/C(=C\c1ccc(O)c(O)c1)C(N)=O` gave an IC50 of 20 µM.
Take `O=C(NCc1ccccc1)c1cc2cc(O)c(O)cc2cn1`: the IC50 is over 1000 µM in test [1] and 3.1 µM in test [2].
In the case of `NC(=O)c1cc2ccc(O)c(O)c2cn1`, the IC50 was 0.5 µM in test [1] and over 100 µM in test [2].
On to `O=C(NCc1ccccc1)c1cc2ccc(O)c(O)c2cn1`, for which the figures for the IC50 in test [1] and in test [2] were 1 µM and 1.4 µM, respectively.
As to `O=C(Nc1ccccc1)c1cc2ccc(O)c(O)c2cn1`, the values for the IC50 in test [1] and in test [2] were 1 µM and 7.7 µM, respectively.
Take `O=C(NCCc1ccccc1)c1cc2ccc(O)c(O)c2cn1`: the IC50 in test [1] was determined as 40 µM; in test [2], 1.4 µM.
On to `O=C(Nc1ccccc1)c1cc2cc(O)c(O)cc2cn1`, for which the IC50 in test [1] is 600 µM; in test [2], 5.6 µM.
